Converted amounts (≈) assume the structure as drawn.
Experiments:
Pseudomonas aeruginosa [1] = assay: Antimicrobial activity against Pseudomonas aeruginosa PA3919 with (delta(mexAB-OprM)delta(mexXY)delta(MexZ) phenotype after 16 to 20 hrs by 2-fold microbroth dilution method; format: functional
Pseudomonas aeruginosa [2] = assay: Antimicrobial activity against wild type Pseudomonas aeruginosa PA01 after 16 to 20 hrs by 2-fold microbroth dilution method; format: functional
[3] = Thermodynamic solubility of the compound in thermosol at pH 3.0; format: physicochemical; conditions: buffer, read-out: Therm_solubility
[4] = Thermodynamic solubility of the compound in thermosol at pH 7.4; format: physicochemical; conditions: buffer, read-out: Therm_solubility
[5] = Thermodynamic solubility of the compound in thermosol at pH 9; format: physicochemical; conditions: buffer, read-out: Therm_solubility
[6] = Fraction unbound in rat plasma relative to untreated control; format: ADME, cell-free
[7] = Fraction unbound in human plasma relative to untreated control; format: ADME, cell-free
[8] = Clearance in rat at 10 mg/kg; format: ADME, organism-based; set-up: dose 10 mg/kg; conditions: in vivo
[9] = Volume of distribution at steady state in rat at 10 mg/kg; format: ADME, organism-based; set-up: dose 10 mg/kg; conditions: in vivo, read-out: Vdss
[10] = Half life in rat at 10 mg/kg; format: ADME, organism-based; set-up: dose 10 mg/kg; conditions: in vivo
[11] = AUC in rat at 10 mg/kg; format: ADME, organism-based; set-up: dose 10 mg/kg; conditions: plasma
Rattus norvegicus = assay: Free AUC in rat at 10 mg/kg; format: ADME, organism-based; set-up: dose 10 mg/kg; conditions: in vivo
Acinetobacter sp. = assay: Antimicrobial activity against Acinetobacter sp. after 16 to 20 hrs by 2-fold microbroth dilution method; format: functional
Pseudomonas aeruginosa [12] = assay: microbe, parasite or virus in culture
Description: Antimicrobial activity against Pseudomonas aeruginosa after 16 to 20 hrs by 2-fold microbroth dilution method

Escherichia coli = assay: microbe, parasite or virus in culture
Description: Antimicrobial activity against Escherichia coli after 16 to 20 hrs by 2-fold microbroth dilution method

Klebsiella pneumoniae = assay: microbe, parasite or virus in culture
Description: Antimicrobial activity against Klebsiella pneumoniae after 16 to 20 hrs by 2-fold microbroth dilution method

Klebsiella aerogenes = assay: microbe, parasite or virus in culture
Description: Antimicrobial activity against Enterobacter aerogenes after 16 to 20 hrs by 2-fold microbroth dilution method

Citrobacter freundii = assay: microbe, parasite or virus in culture
Description: Antimicrobial activity against Citrobacter freundii after 16 to 20 hrs by 2-fold microbroth dilution method

[13] = target: T1, UDP-3-O-acyl-N-acetylglucosamine deacetylase (Pseudomonas aeruginosa (strain ATCC 15692 / PAO1 / 1C / PRS 101 / LMG12228), UniProt P47205); assay: Inhibition of Pseudomonas aeruginosa LpxC expressed in Escherichia coli using UDP-3-O-N-acetylglucosamine substrate measured after 30 mins by mass spectrometry
T1 sequence (P47205 whole entry): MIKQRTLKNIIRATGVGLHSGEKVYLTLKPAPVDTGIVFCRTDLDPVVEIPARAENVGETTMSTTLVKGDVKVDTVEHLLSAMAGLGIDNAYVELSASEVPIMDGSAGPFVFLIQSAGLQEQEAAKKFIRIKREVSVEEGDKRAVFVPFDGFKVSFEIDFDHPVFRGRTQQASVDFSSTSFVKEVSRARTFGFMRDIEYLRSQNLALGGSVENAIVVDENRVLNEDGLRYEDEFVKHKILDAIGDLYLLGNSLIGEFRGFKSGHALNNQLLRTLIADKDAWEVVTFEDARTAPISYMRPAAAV

| Structure (SMILES) | MIC (Pseudomonas aeruginosa [1]) [µg/mL] | MIC (Pseudomonas aeruginosa [2]) [µg/mL] | solubility thermodynamic [3] [µg/mL] | solubility thermodynamic [4] [µg/mL] | solubility thermodynamic [5] [µg/mL] | fraction unbound [6] | fraction unbound [7] | clearance [8] [mL/min/kg] | Vd [9] [L/kg] | half-life [10] [h] | AUC [11] [ng·h/mL] | fAUC (Rattus norvegicus) [ng·h/mL] | MIC90 (Acinetobacter sp.) [µg/mL] | MIC90 (Pseudomonas aeruginosa [12]) [µg/mL] | MIC90 (Escherichia coli) [µg/mL] | MIC90 (Klebsiella pneumoniae) [µg/mL] | MIC90 (Klebsiella aerogenes) [µg/mL] | MIC90 (Citrobacter freundii) [µg/mL] | IC50 [13] [nM] |
| --- | --- | --- | --- | --- | --- | --- | --- | --- | --- | --- | --- | --- | --- | --- | --- | --- | --- | --- | --- |
| C[C@@](CCn1ccc(-c2ccccc2)cc1=O)(C(=O)NO)S(C)(=O)=O | 0.06 (≈ 0.165 µM) | 0.5 (≈ 1.37 µM) | 410 (≈ 1130 µM) | 480 (≈ 1320 µM) | > 16000 | 0.28 | 0.14 | – | – | – | – | – | 32 (≈ 87.8 µM) | 2 (≈ 5.49 µM) | 8 (≈ 22 µM) | 16 (≈ 43.9 µM) | 16 (≈ 43.9 µM) | 8 (≈ 22 µM) | – |
| C[C@@](CCn1ccc(C#Cc2ccccc2)cc1=O)(C(=O)NO)S(C)(=O)=O | 0.015 (≈ 0.0386 µM) | 0.25 (≈ 0.644 µM) | – | – | – | – | – | – | – | – | – | – | > 64 | 2 (≈ 5.15 µM) | 0.06 (≈ 0.154 µM) | 0.5 (≈ 1.29 µM) | 0.25 (≈ 0.644 µM) | 0.125 (≈ 0.322 µM) | 1.8 |
| C[C@@](CCn1ccc(-c2ccc(F)c(F)c2F)cc1=O)(C(=O)NO)S(C)(=O)=O | 0.015 (≈ 0.0359 µM) | 0.25 (≈ 0.598 µM) | – | – | – | – | – | – | – | – | – | – | > 64 | 1 (≈ 2.39 µM) | 0.5 (≈ 1.2 µM) | 2 (≈ 4.78 µM) | 1 (≈ 2.39 µM) | 0.5 (≈ 1.2 µM) | 1.5 |
| C[C@@](CCn1ccc(-c2ccc3ccccc3c2)cc1=O)(C(=O)NO)S(C)(=O)=O | 0.008 (≈ 0.0193 µM) | 0.125 (≈ 0.302 µM) | – | – | – | – | – | – | – | – | – | – | > 64 | 1 (≈ 2.41 µM) | 0.06 (≈ 0.145 µM) | 0.5 (≈ 1.21 µM) | 0.25 (≈ 0.603 µM) | 0.125 (≈ 0.302 µM) | 1.2 |
| C[C@@](CCn1ccc(-c2ccc(-n3nccn3)cc2)cc1=O)(C(=O)NO)S(C)(=O)=O | 0.015 (≈ 0.0348 µM) | 0.25 (≈ 0.579 µM) | 3.3 (≈ 7.65 µM) | 9.2 (≈ 21.3 µM) | 2740 (≈ 6350 µM) | 0.13 | 0.25 | 32 | 0.92 | 0.94 | 5200 | 680 | 64 (≈ 148 µM) | 1 (≈ 2.32 µM) | 0.06 (≈ 0.139 µM) | 0.125 (≈ 0.29 µM) | 0.125 (≈ 0.29 µM) | 0.125 (≈ 0.29 µM) | – |

The next lines start with the values.

| MIC (Pseudomonas aeruginosa [1]) [µg/mL] | MIC (Pseudomonas aeruginosa [2]) [µg/mL] | solubility thermodynamic [3] [µg/mL] | solubility thermodynamic [4] [µg/mL] | solubility thermodynamic [5] [µg/mL] | fraction unbound [6] | fraction unbound [7] | clearance [8] [mL/min/kg] | Vd [9] [L/kg] | half-life [10] [h] | AUC [11] [ng·h/mL] | fAUC (Rattus norvegicus) [ng·h/mL] | MIC90 (Acinetobacter sp.) [µg/mL] | MIC90 (Pseudomonas aeruginosa [12]) [µg/mL] | MIC90 (Escherichia coli) [µg/mL] | MIC90 (Klebsiella pneumoniae) [µg/mL] | MIC90 (Klebsiella aerogenes) [µg/mL] | MIC90 (Citrobacter freundii) [µg/mL] | IC50 [13] [nM] | Structure (SMILES) |
| --- | --- | --- | --- | --- | --- | --- | --- | --- | --- | --- | --- | --- | --- | --- | --- | --- | --- | --- | --- |
| 0.008 (≈ 0.023 µM) | 0.125 (≈ 0.36 µM) | 7.3 (≈ 21 µM) | 3.9 (≈ 11.2 µM) | 260 (≈ 748 µM) | 0.026 | 0.023 | 57 | 3.8 | 3.2 | 2900 | 75 | 32 (≈ 92.1 µM) | 4 (≈ 11.5 µM) | 2 (≈ 5.76 µM) | 16 (≈ 46.1 µM) | 4 (≈ 11.5 µM) | 8 (≈ 23 µM) | – | C[C@@](CCc1ccc(-c2ccccc2)cc1)(C(=O)NO)S(C)(=O)=O |
| 0.008 (≈ 0.0194 µM) | 0.125 (≈ 0.303 µM) | 82 (≈ 199 µM) | 130 (≈ 315 µM) | > 14000 | 0.32 | 0.31 | 72 | 1.7 | 1.4 | 2300 | 740 | > 64 | 1 (≈ 2.42 µM) | 0.25 (≈ 0.606 µM) | 0.5 (≈ 1.21 µM) | 0.5 (≈ 1.21 µM) | 0.5 (≈ 1.21 µM) | – | COc1ccc(-c2ccn(CC[C@](C)(C(=O)NO)S(C)(=O)=O)c(=O)c2)c(F)c1 |
| 0.008 (≈ 0.0192 µM) | 0.125 (≈ 0.3 µM) | – | – | – | – | – | – | – | – | – | – | 64 (≈ 154 µM) | 1 (≈ 2.4 µM) | 0.125 (≈ 0.3 µM) | 1 (≈ 2.4 µM) | 0.5 (≈ 1.2 µM) | 0.5 (≈ 1.2 µM) | 1 | C[C@@](CCn1ccc(-c2ccc(Cl)cc2F)cc1=O)(C(=O)NO)S(C)(=O)=O |
| 0.008 (≈ 0.0184 µM) | 0.125 (≈ 0.287 µM) | – | – | – | – | – | – | – | – | – | – | > 64 | 0.25 (≈ 0.575 µM) | 0.06 (≈ 0.138 µM) | 0.5 (≈ 1.15 µM) | 0.25 (≈ 0.575 µM) | 0.25 (≈ 0.575 µM) | 0.52 | C[C@@](CCn1ccc(-c2ccc(Cl)c(F)c2F)cc1=O)(C(=O)NO)S(C)(=O)=O |

Source: ChEMBL document CHEMBL2021790, “Pyridone methylsulfone hydroxamate LpxC inhibitors for the treatment of serious gram-negative infections” (J Med Chem, 2012)
